36 molecules from patent US20090264433A1, “Compounds, Compositions and Methods Comprising Triazine Derivatives” (Institute for OneWorld Health, priority 2008, published 2009) can be followed below.

Structures are written as SMILES. Where a name gives a salt, the structure may show the parent alone.

The target of this assay is T1, CFTR channel in human colonic T84 cells (Homo sapiens, UniProt P13569).
T1 construct: results in the phosphorylation and opening of CFTR anion channels; host or cells: human colonic T84 cells
T1 sequence (P13569 whole entry): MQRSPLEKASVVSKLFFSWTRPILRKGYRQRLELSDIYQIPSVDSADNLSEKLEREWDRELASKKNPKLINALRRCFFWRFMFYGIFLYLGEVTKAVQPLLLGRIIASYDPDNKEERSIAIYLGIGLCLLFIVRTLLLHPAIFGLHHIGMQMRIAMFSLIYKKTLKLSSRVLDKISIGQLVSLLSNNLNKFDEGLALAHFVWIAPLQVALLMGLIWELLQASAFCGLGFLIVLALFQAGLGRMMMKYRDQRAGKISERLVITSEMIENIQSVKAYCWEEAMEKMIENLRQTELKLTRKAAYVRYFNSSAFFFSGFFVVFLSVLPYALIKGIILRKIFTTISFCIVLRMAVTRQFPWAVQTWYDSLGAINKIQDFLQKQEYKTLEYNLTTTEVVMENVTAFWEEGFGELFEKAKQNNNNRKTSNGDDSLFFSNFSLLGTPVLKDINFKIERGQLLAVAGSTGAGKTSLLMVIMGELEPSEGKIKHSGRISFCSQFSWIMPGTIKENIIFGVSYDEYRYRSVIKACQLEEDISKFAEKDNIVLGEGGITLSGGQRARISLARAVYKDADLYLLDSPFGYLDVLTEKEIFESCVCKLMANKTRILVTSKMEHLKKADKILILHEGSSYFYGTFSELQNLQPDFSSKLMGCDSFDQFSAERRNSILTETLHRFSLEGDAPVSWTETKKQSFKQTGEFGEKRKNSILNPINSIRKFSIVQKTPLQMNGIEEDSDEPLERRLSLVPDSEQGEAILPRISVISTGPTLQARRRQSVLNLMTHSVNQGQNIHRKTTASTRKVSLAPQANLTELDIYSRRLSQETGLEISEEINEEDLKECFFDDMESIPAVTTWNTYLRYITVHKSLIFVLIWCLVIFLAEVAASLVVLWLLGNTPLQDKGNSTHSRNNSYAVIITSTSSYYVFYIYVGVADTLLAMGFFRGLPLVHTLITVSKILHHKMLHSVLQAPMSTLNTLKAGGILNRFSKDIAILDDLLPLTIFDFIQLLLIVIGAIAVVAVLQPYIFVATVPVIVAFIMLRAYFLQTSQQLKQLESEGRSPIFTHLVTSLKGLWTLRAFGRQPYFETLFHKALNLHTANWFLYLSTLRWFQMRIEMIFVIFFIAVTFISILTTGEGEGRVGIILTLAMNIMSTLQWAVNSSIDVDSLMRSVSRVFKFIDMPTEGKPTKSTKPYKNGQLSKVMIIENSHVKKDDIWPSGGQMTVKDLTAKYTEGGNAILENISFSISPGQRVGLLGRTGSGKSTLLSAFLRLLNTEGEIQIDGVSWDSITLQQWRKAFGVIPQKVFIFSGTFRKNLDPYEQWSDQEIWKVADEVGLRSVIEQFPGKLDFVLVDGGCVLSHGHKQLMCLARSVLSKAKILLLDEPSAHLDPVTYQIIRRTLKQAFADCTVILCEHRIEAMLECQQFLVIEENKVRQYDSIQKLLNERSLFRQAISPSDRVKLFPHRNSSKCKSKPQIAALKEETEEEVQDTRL
As to the kind of experiment: T84 assay (FLIPR membrane potential dye, forskolin/IBMX-stimulated CFTR). In kind it is cell-based. To be noted: average of at least 2 runs unless annotated n = 1. The gist of the method:
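T84 cells (25,000/well, grown overnight) were washed in HBSS with 10 mM Hepes, then loaded with FLIPR Red membrane potential dye for 45 min with or without compound. CFTR was stimulated with 10 μM forskolin plus 100 μM IBMX after a 10 s baseline. Depolarization was tracked as a fluorescence increase, read every second for 150 s.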
For orientation: IC50 means the concentration at which inhibition is half-maximal. Read a low IC50 as greater potency in that assay. As for `O=Cc1ccc(COc2ncc(-c3cc(Cl)c(O)c(Cl)c3)nn2)cc1` [Compound 142, 4-((6-(3,5-dichloro-4-hydroxyphenyl)-1,2,4-triazin-3-yloxy)methyl)benzaldehyde], the IC50 was 10.7 µM.
Then `Oc1c(Cl)cc(-c2cnc(OCc3ccc(CN4CCN(CCc5ccccc5)CC4)cc3)nn2)cc1Cl` [Compound 152, 2,6-dichloro-4-(3-(4-((4-phenethylpiperazin-1-yl)methyl)benzyloxy)-1,2,4-triazin-6-yl)phenol], with 8.88 µM.
`Oc1c(Cl)cc(-c2cnc(OCc3cccc(Cl)c3Cl)nn2)cc1Cl` [Compound 114, 2,6-dichloro-4-(3-(2,3-dichlorobenzyloxy)-1,2,4-triazin-6-yl)phenol] registered an IC50 of 3.36 µM.
Then `Oc1c(Br)cc(-c2cnc(OCCCc3ccc(Cl)cc3)nn2)cc1Br` [Compound 95, 2,6-dibromo-4-(3-(3-(4-chlorophenyl)propoxy)-1,2,4-triazin-6-yl)phenol], with 0.61 µM.
With `CC1(C)Cc2cccc(OCc3ncc(-c4cc(Cl)c(O)c(Cl)c4)nn3)c2O1` [Compound 50, 2,6-dichloro-4-(3-((2,2-dimethyl-2,3-dihydrobenzofuran-7-yloxy)methyl)-1,2,4-triazin-6-yl)phenol], the IC50 stood at 15.4 µM.
The result for `CN(Cc1ccc(COc2ncc(-c3cc(Cl)c(O)c(Cl)c3)nn2)cc1)Cc1cncc(Br)c1` [Compound 170, 4-(3-(4-((((5-bromopyridin-3-yl)methyl)(methyl)amino)methyl)benzyloxy)-1,2,4-triazin-6-yl)-2,6-dichlorophenol] reads 2.81 µM; that for `Oc1c(Br)cc(-c2cnc(OCc3ccc(F)cc3F)nn2)cc1Br` [Compound 4, 2,6-dibromo-4-(3-(2,4-difluorobenzyloxy)-1,2,4-triazin-6-yl)phenol], 0.54 µM; that for `Oc1c(Cl)cc(-c2cnc(NCc3ccc(Cl)c(Cl)c3)nn2)cc1Cl` [Compound 133, 2,6-dichloro-4-(3-(3,4-dichlorobenzylamino)-1,2,4-triazin-6-yl)phenol, formate salt], 23.7 µM.
For the molecule `CN1CCCN(Cc2ccc(CN(C)Cc3ccc(COc4ncc(-c5cc(Cl)c(O)c(Cl)c5)nn4)cc3)cc2)CC1` [Compound 201, 2,6-dichloro-4-(3-(4-((methyl(4-((4-methyl-1,4-diazepan-1-yl)methyl)benzyl)amino)methyl)benzyloxy)-1,2,4-triazin-6-yl)phenol], the IC50 was determined as 9.99 µM.
The result for `Oc1c(Cl)cc(-c2cnc(NCc3ccc(Cl)cc3Cl)nn2)cc1Cl` [Compound 134, 2,6-dichloro-4-(3-(2,4-dichlorobenzylamino)-1,2,4-triazin-6-yl)phenol, formate salt] reads 9.65 µM; that for `Oc1c(Cl)cc(-c2cnc(NCc3ccc(Cl)cc3)nn2)cc1Cl` [Compound 135, 2,6-dichloro-4-(3-(4-chlorobenzylamino)-1,2,4-triazin-6-yl)phenol], 6.14 µM.
In the case of `CN(Cc1ccc(COc2ncc(-c3cc(Cl)c(O)c(Cl)c3)nn2)cc1)Cc1cccc(CN2CCOCC2)c1` [Compound 200, 2,6-dichloro-4-(3-(4-((methyl(3-(morpholinomethyl)benzyl)amino)methyl)benzyloxy)-1,2,4-triazin-6-yl)phenol], the IC50 was determined as 5.89 µM. This IC50 and that of the molecule before are within 1.5-fold of each other.
With `Oc1c(Cl)cc(-c2cnc(OCCc3ccc(Cl)cc3)nn2)cc1Cl` [Compound 112, 2,6-dichloro-4-(3-(4-chlorophenethoxy)-1,2,4-triazin-6-yl)phenol], the IC50 worked out at 0.17 µM.
The result for `Cc1ccc(OCc2ncc(-c3cc(Cl)c(O)c(Cl)c3)nn2)c2c1CCC2` [Compound 41, 2,6-dichloro-4-(3-((7-methyl-2,3-dihydro-1H-inden-4-yloxy)methyl)-1,2,4-triazin-6-yl)phenol] reads 10.6 µM; that for `Oc1c(Cl)cc(-c2cnc(OCCNc3ccccc3)nn2)cc1Cl` [Compound 125, 2,6-dichloro-4-(3-(2-(phenylamino)ethoxy)-1,2,4-triazin-6-yl)phenol], 25.8 µM.
Take `Oc1c(Br)cc(-c2cnc(COc3ccc(F)cc3F)nn2)cc1Br` [Compound 56, 2,6-dibromo-4-(3-((2,4-difluorophenoxy)methyl)-1,2,4-triazin-6-yl)phenol]: the midpoint of inhibition, the IC50, lay at 25.3 µM.
In the case of `Oc1c(Cl)cc(-c2cnc(OCCc3ccc(Br)cc3)nn2)cc1Cl` [Compound 117, 4-(3-(4-bromophenethoxy)-1,2,4-triazin-6-yl)-2,6-dichlorophenol], the IC50 came to 0.61 µM.
In turn, `O=[N+]([O-])c1ccccc1SCc1ncc(-c2cc(Br)c(O)c(Br)c2)nn1` [Compound 131, 2,6-dibromo-4-(3-((2-nitrophenylthio)methyl)-1,2,4-triazin-6-yl)phenol] gave an IC50 of 14.8 µM. Compared with the last molecule, the IC50 is about 24-fold higher.
For the molecule `Oc1c(Br)cc(-c2cnc(OCc3ccc(OC(F)(F)F)cc3)nn2)cc1Br` [Compound 28, 2,6-dibromo-4-(3-(4-(trifluoromethoxy)benzyloxy)-1,2,4-triazin-6-yl)phenol], the IC50 came out at 15.5 µM.
`Cc1ccc(C(C)C)c(OCc2ncc(-c3cc(Br)c(O)c(Br)c3)nn2)c1` [Compound 57, 2,6-dibromo-4-(3-((2-isopropyl-5-methylphenoxy)methyl)-1,2,4-triazin-6-yl)phenol] yielded an IC50 of 26.8 µM.
In the case of `OCCN(Cc1ccc(COc2ncc(-c3cc(Cl)c(O)c(Cl)c3)nn2)cc1)Cc1cccc(OCc2ccccc2Cl)c1` [Compound 223, 2,6-dichloro-4-(3-(4-(((3-(2-chlorobenzyloxy)benzyl)(2-hydroxyethyl)amino)methyl)benzyloxy)-1,2,4-triazin-6-yl)phenol], half-maximal inhibition (IC50) required 3.55 µM.
As for `CN(Cc1ccc(COc2ncc(-c3cc(Cl)c(O)c(Cl)c3)nn2)cc1)Cc1ccc(Oc2ccccn2)cc1` [Compound 176, 2,6-dichloro-4-(3-(4-((methyl(4-(pyridin-2-yloxy)benzyl)amino)methyl)benzyloxy)-1,2,4-triazin-6-yl)phenol], the IC50 stood at 3.92 µM.
As to `Oc1c(Br)cc(-c2cnc(-c3cccc(Oc4ccccc4)c3)nn2)cc1Br` [Compound 129, 2,6-dibromo-4-(3-(3-phenoxyphenyl)-1,2,4-triazin-6-yl)phenol], the IC50 came to 24.8 µM.
Then `O=C(c1cccnc1)N1CCN(Cc2ccc(COc3ncc(-c4cc(Cl)c(O)c(Cl)c4)nn3)cc2)CC1` [Compound 224, (4-(4-((6-(3,5-dichloro-4-hydroxyphenyl)-1,2,4-triazin-3-yloxy)methyl)benzyl)piperazin-1-yl)(pyridin-3-yl)methanone], with 11.8 µM; and `OCCN(Cc1ccc(COc2ncc(-c3cc(Cl)c(O)c(Cl)c3)nn2)cc1)Cc1cccc(Cl)c1Cl` [Compound 215, 2,6-dichloro-4-(3-(4-(((2,3-dichlorobenzyl)(2-hydroxyethyl)amino)methyl)benzyloxy)-1,2,4-triazin-6-yl)phenol], with 4.54 µM.
As for `Cc1ccc(Cl)c(OCc2ncc(-c3cc(Br)c(O)c(Br)c3)nn2)c1` [Compound 34, 2,6-dibromo-4-(3-((2-chloro-5-methylphenoxy)methyl)-1,2,4-triazin-6-yl)phenol], the IC50 was 11.6 µM.
The molecule `CN(Cc1ccc(COc2ncc(-c3cc(Cl)c(O)c(Cl)c3)nn2)cc1)Cc1cccc(-c2cccnc2)c1` [Compound 213, 2,6-dichloro-4-(3-(4-((methyl(3-(pyridin-3-yl)benzyl)amino)methyl)benzyl-oxy)-1,2,4-triazin-6-yl)phenol] showed an IC50 of 4.31 µM.
In turn, `Oc1c(Br)cc(-c2cnc(OCc3ccc(CN4CCOCC4)cc3)nn2)cc1Br` [Compound 110, 2,6-dibromo-4-(3-(4-(morpholinomethyl)benzyloxy)-1,2,4-triazin-6-yl)phenol] came in with an IC50 of 12.9 µM.
In the case of `CN(Cc1ccncc1)Cc1ccc(COc2ncc(-c3cc(Cl)c(O)c(Cl)c3)nn2)cc1` [Compound 175, 2,6-dichloro-4-(3-(4-((methyl(pyridin-4-ylmethyl)amino)methyl)benzyl-oxy)-1,2,4-triazin-6-yl)phenol], the midpoint of inhibition, the IC50, lay at 11.7 µM.
`CN(C)c1cccc(COc2ncc(-c3cc(Br)c(O)c(Br)c3)nn2)c1` [Compound 17, 2,6-dibromo-4-(3-(3-(dimethylamino)benzyloxy)-1,2,4-triazin-6-yl)phenol] yielded an IC50 of 1.17 µM.
As to `Oc1c(Br)cc(-c2cnc(OCc3ccc(-c4ccccc4)cc3)nn2)cc1Br` [Compound 14, 4-(3-(biphenyl-4-ylmethoxy)-1,2,4-triazin-6-yl)-2,6-dibromophenol], half-maximal inhibition (IC50) was put at 0.89 µM.
In the case of `Oc1c(Br)cc(-c2cnc(OCCc3ccc(Cl)cc3)nn2)cc1Br` [Compound 90, 2,6-dibromo-4-(3-(4-chlorophenethoxy)-1,2,4-triazin-6-yl)phenol], the IC50 was 0.17 µM.
In turn, `OCCN(Cc1ccccc1)Cc1ccc(COc2ncc(-c3cc(Cl)c(O)c(Cl)c3)nn2)cc1` [Compound 159, 4-(3-(4-((benzyl(2-hydroxyethyl)amino)methyl)benzyloxy)-1,2,4-triazin-6-yl)-2,6-dichlorophenol] returned a 50% inhibitory concentration (IC50) of 3.37 µM.
Take `Cc1cncc(Oc2ccc(CN(C)Cc3ccc(COc4ncc(-c5cc(Cl)c(O)c(Cl)c5)nn4)cc3)cc2)n1` [Compound 209, 2,6-dichloro-4-(3-(4-((methyl(4-(6-methylpyrazin-2-yloxy)benzyl)amino)methyl)benzyloxy)-1,2,4-triazin-6-yl)phenol]: 4.8 µM corresponded to half-maximal inhibition (IC50).
`CCC(=O)N1CCN(Cc2ccc(COc3ncc(-c4cc(Cl)c(O)c(Cl)c4)nn3)cc2)CC1` [Compound 221, 1-(4-(4-((6-(3,5-dichloro-4-hydroxyphenyl)-1,2,4-triazin-3-yloxy)methyl)benzyl)piperazin-1-yl)propan-1-one] displayed a 50% inhibitory concentration (IC50) of 17.4 µM.
The result for `C=CCc1ccccc1OCc1ncc(-c2cc(Br)c(O)c(Br)c2)nn1` [Compound 44, 4-(3-((2-allylphenoxy)methyl)-1,2,4-triazin-6-yl)-2,6-dibromophenol] reads 12.7 µM.
